Test results from patent US9862748B2, “Peptide compounds and methods of production and use thereof” (priority 2012, dated 2018).
Where two headings read alike, the source gives them in different places. Square brackets hold non-standard residues; d marks the D form. Ends that are not written are not given here. Peptide text beside a SMILES is read from it. AEEA = NCCOCCOCC(=O)O

What was measured:
[1] = tested on: E. coli ATCC® strain 25922™; assay type: cell-based, Escherichia coli; set-up: unit not given here; details: Table 6
Method: (§1) In vitro bactericidal activity: The three peptide compounds BCC01-5RMP (SEQ ID NO: 21), BCC02-5RMP (SEQ ID NO: 22), and BCC03-5RMP (SEQ ID NO: 23) were assayed for in vitro bactericidal activity against Pseudomonas aeruginosa, Escherichia coli, Salmonella typhimurium, and Acinetobacter baumannii. The starting inoculum for all experiments was 1×10^6 colony forming units (CFU)/ml. The CFU remaining at the end of 60 to 180 minute incubation was determined, and the data plotted as a log reduction in CFU/ml.

[2] = tested on: Pseudomonas aeruginosa ATCC® 27853™; assay type: cell-based; set-up: Effects of Peptide Compounds on Pseudomonas aeruginosa ATCC ® 27853 ™: unit not given here; details: Table 6
Method: as §1
For FIGS. 10-13, in vitro bactericidal assays were performed using a starting inoculum of 1×10^6 CFU/ml of the bacterial suspension. The CFU remaining at the end of the 60-180 minute incubation was determined, and the data was plotted as log reduction in CFU/ml.
In particular, each of the test peptides (CAP37 peptides 120-146WR, 120-146WH, and 95-122 (SEQ ID NOs: 30, 31, and 26, respectively)) was used at 25, 12.5, 6.25, and 3.12 μM. Gentamicin was used at 4 μg/ml. 1×10^6/ml Acinetobacter baumannii ATCC® BAA-747™ or Pseudomonas aeruginosa ATCC® 27853™ (American Type Culture Collection, Manassas, Va.) were incubated with the peptides, negative buffer control (tryptone saline), and positive control gentamicin at pH 5.5 or 7.2. A 60 minute incubation was used for Acinetobacter baumannii ATCC® BAA-747™, while a 180 minute incubation was used for Pseudomonas aeruginosa ATCC® 27853™. 50 μl aliquots were plated out on agar plates and incubated overnight. Colony forming units were counted after overnight incubation and CFU/ml calculated.
For FIG. 14, 1×10^6/ml Pseudomonas aeruginosa ATCC® 27853™ were incubated with each of the test peptides (CAP37 peptides 120-146WR, 120-146WH, 120-146QR, 120-146QH, 120-146QR-5RMP, and 120-146QH-5RMP (SEQ ID NOs: 30, 31, 28, 29, 32, and 33, respectively)) at 150, 75, and 37.5 μg/ml, or negative buffer control (tryptone saline), for 180 minutes at pH 5.5. 50 μl aliquots were plated out on agar plates and incubated overnight. Colony forming units were counted after overnight incubation and CFU/ml calculated.

[3] = tested on: human corneal epithelial cell (HCEC); experiment: HCEC chemotaxis, modified Boyden chemotaxis chamber assay; assay type: cell-based; details: for HCEC migration versus buffer control: 120-146QH 10^−4 to 10^−10 M, 120-146QR 10^−6 and 10^−8 M, HB-EGF 50 ng/ml, rCAP37 250 ng/ml, 3 hours
Method: The effect of buffer control (0.1% BSA in Gey's buffer), heparin binding-epidermal growth factor (HB-EGF, 50 ng/ml), recombinant CAP37 (rCAP37, 250 ng/ml), 120-146QH ([…], 10^−10M, 10^−8M, 10^−4M, and 10^−4M,) and 120-146QR (10^−10M, 10^−8M, 10^−6M, and 10^−4M) on HCEC chemotaxis was determined by the modified Boyden chemotaxis chamber method. HCEC chemotaxis was measured in response to HB-EGF, rCAP37, and peptides 120-146QH (SEQ ID NO: 29) and 120-146QR (SEQ ID NO: 28) after incubation for 3 hours at 37° C. Chemotaxis is expressed as a percent migration. The buffer control (no chemoattractant) is arbitrarily assigned the value of 100% migration. Data are expressed as means±SEM and are calculated from 6 observations for each test point. **P<0.01 by Wilcoxon signed-rank test as compared to controls.
Chemotaxis assays were performed using the modified Boyden chemotaxis chamber assay. Peptide 120-146QH was used at 10^−4M, 10^−6M, 10^−8 M, 10^−10 M, and 10^−12M, and peptide 120-146QR was used at 10^−4M, 10^−6M, 10^−8 M, and 10^−10 M.

[4] = set-up: species or system male Sprague Dawley rats; details: rat, in vivo, iv
Method: The purpose of this example was to assess the pharmacokinetics, distribution, and excretion of ^14C-BCC03-5RMP (SEQ ID NO: 23) following a single intravenous administration to male rats. Pharmacokinetic, excretion, and distribution profiles of ^14C-BCC03-5RMP-derived radioactivity were examined in male Sprague Dawley rats following a single intravenous administration of ^14C-BCC03-5RMP (20 mg/kg; 125 μCi/kg). ^14C-BCC03-5RMP was formulated in 5% (v:v) dextrose in water, pH 5.5 and was administered at a dose volume of 5 mL/kg. For assessment of pharmacokinetics of total radioactivity (Group 1), blood was collected at 0.25, 0.5, 1, 2, 4, 8, 24, 48, and 72 hours postdose. For assessment of excretion profiles, urine was collected from 0-8 and 8-24 hours postdose, and at 24-hour intervals through 168 hours postdose. Feces was collected at 24-hour intervals through 168 hours postdose. For assessment of distribution profiles, one animal/time point was sacrificed at 0.25, 1, 4, 24, and 72 hours postdose, and the carcasses were prepared for quantitative whole-body autoradiography (QWBA). Concentrations of radioactivity in whole blood, plasma, urine, feces (after oxidation), cage rinse, cage wash, and carcass were determined by liquid scintillation counting (LSC). Tissue concentrations were calculated by interpolation from each standard curve using MCID™ analysis software (InterFocus Imaging Ltd Corp., UK). Pharmacokinetic parameters for total radioactivity in blood and plasma were calculated using WinNonlin Professional Edition (version 5.2, Pharsight Corporation, St. Louis, Mo.).

[5] = tested on: mouse cornea (corneal epithelial abrasion); experiment: In vivo model of corneal wound healing; details: treated at 0 and 16 hours; 95-122 10^−5 M; 120-146WH 10^−8 M or 10^−6 M; HB-EGF 250 ng/ml
Method: The in vivo model of wound healing was carried out using a disposable biopsy punch (2 mm, Miltex, York, Pa.) to demarcate the mouse cornea and a 0.5 mm burr using the AlgerBrush II (The Alger Company, Inc., Lago Vista, Tex.) to remove the corneal epithelium.
Mice were anesthetized using ketamine (100 mg/kg; Bionichepharma, LLC., St. Lake Forrest, Ill.) and xylazine ([…]; Rompun; Bayer Corp., Shawnee Mission, Kans.), and the right cornea was wounded as follows. A disposable biopsy punch (2 mm, Miltex, York, Pa.) was used to demarcate the mouse cornea. The corneal epithelium was carefully removed within the 2 mm demarcated area with a 0.5 mm burr using the AlgerBrush II (The Alger Company, Inc., Lago Vista, Tex.). The corneal abrasions were treated at 0 and 16 hours with HB-EGF (250 ng/ml), rCAP37 (250 ng/ml), or vehicle control (0.9% sodium chloride, pH 5.5, Baxter, Deerfield, Ill.). Corneal abrasions were visualized using sterile fluorescein sodium ophthalmic strips USP (FLUORETS®, Chauvin Laboratory, Aubenas, France) dampened with sterile PBS. Images were taken at 0, 16, 24, and 48 hours immediately following fluorescein staining using a surgical microscope equipped with a camera (Carl Zeiss OPMI VISU 140, Carl Zeiss Surgical, Inc., Oberkochen, Germany). The areas of the open wound were quantitated using ImageJ software (US National Institutes of Health), and the results were reported as the percentage of wound closure.
Whole mouse eyes were collected for histology at 0, 6, 16, 24, and 48 hours post wounding and were immediately placed in Prefer fixative (Anatech LTD., Battle Creek, Mich.) for 20 minutes before being transferred to 70% ethanol. Tissues were paraffin-embedded and cut at a thickness of 5 μm, mounted on SUPERFROSTPLUS® slides (Statlab Medical Products, Lewisville, Tex.), and subsequently deparaffinized, rehydrated, and washed in deionized water. Sections were stained with hematoxylin (Leica Microsystems, Buffalo Grove, Ill.) and rinsed twice in deionized water before being washed in Blue Buffer (Leica Microsystems). The sections were finally washed in deionized water and 95% ethanol prior to being counterstained with eosin (Leica Microsystems). Sections were dehydrated in ethanol and cleared in xylene.

[6] = tested on: HCEC monolayers; experiment: In vitro scratch assay of wound closure; assay type: cell-based, human; details: 250 ng/ml
Method: An in vitro scratch assay was used in order to determine the ability of rCAP37 to facilitate corneal wound healing. Human corneal epithelial cells were cultured as described above until they reached a confluent monolayer. Each monolayer was scratched using a 10 μl pipette tip to create two perpendicular lines. Monolayers were treated with heparin binding-epidermal growth factor (HB-EGF, 250 ng/ml; Becton Dickinson), rCAP37 (25-2000 ng/ml), or basal KSFM (Gibco). Wound closure was monitored at 0, 18, 24, and 48 hours utilizing a camera-equipped inverted microscope (TE2000-E; Nikon, Melville, N.Y.). Time-lapse images of in vitro wound closure were obtained using a camera-equipped inverted microscope (TE2000-E; Nikon) from 0-18 hours. HCEC monolayers were treated with HB-EGF, rCAP37, and basal KSFM as described above. The width of each scratch was quantitated using ImageJ software (US National Institutes of Health, Bethesda, Md.). Results are presented as the percentage of wound closure.

With “RRRRNQGRHFCGGALIHARFVMTAASCFQR (5-arginine peptide derivative of CAP37 peptide) [SEQ ID NO: 18 (Linear)]” the “Effects of Peptide Compounds on Escherichia coli ATCC ® 25922 ™” value (shortened to “Effects … on Escherichia coli ATCC ® 25922 ™”) ([1]; Peptide Conc 262.8 μg/ml) was 100.0 and the “Effects of Peptide Compounds on Pseudomonas aeruginosa ATCC ® 27853 ™” value ([2]; Peptide Conc 87.6 μg/ml) was 100.0.

With “RRRRNQGRHFCGGALIHARFVMTAASCFQR (not fully specified; cysteine pairing not given here) [SEQ ID NO: 18 (Cyclized)]” the “Effects … on Escherichia coli ATCC ® 25922 ™” value ([1]; Peptide Conc 25 μg/ml) was 38.0, the “Effects … on Escherichia coli ATCC ® 25922 ™” value ([1]; Peptide Conc 400 μg/ml) was 82.0 and the “Effects of Peptide Compounds on Pseudomonas aeruginosa ATCC ® 27853 ™” value ([2]; Peptide Conc 3.125 μg/ml) was 100.0. The “Effects of Peptide Compounds on Pseudomonas aeruginosa ATCC ® 27853 ™” value ([2]; Peptide Conc 6.25 μg/ml) was 100.0, the “Effects of Peptide Compounds on Pseudomonas aeruginosa ATCC ® 27853 ™” value ([2]; Peptide Conc 12.5 μg/ml) was 100.0 and the “Effects of Peptide Compounds on Pseudomonas aeruginosa ATCC ® 27853 ™” value ([2]; Peptide Conc 25 μg/ml) was 100.0. For the same molecule, the “Effects of Peptide Compounds on Pseudomonas aeruginosa ATCC ® 27853 ™” value ([2]; Peptide Conc 50 μg/ml) was 100.0, the “Effects of Peptide Compounds on Pseudomonas aeruginosa ATCC ® 27853 ™” value ([2]; Peptide Conc 100 μg/ml) was 100.0 and the “Effects of Peptide Compounds on Pseudomonas aeruginosa ATCC ® 27853 ™” value ([2]; Peptide Conc 200 μg/ml) was 100.0. The “Effects of Peptide Compounds on Pseudomonas aeruginosa ATCC ® 27853 ™” value ([2]; Peptide Conc 400 μg/ml) was 100.0.

For “GTRCQVAGWGSQRSGGRLSRFPRFVNV [Peptide 120-146QR]”, the “HCEC migration versus buffer control” value [3] was “significantly increase migration”.

In the case of “GTRCQVAGWGSQHSGGRLSRFPRFVNV [Peptide 120-146QH]”, the “HCEC migration versus buffer control” value [3] is reported as “significantly increase migration” and the “HCEC migration compared with whole CAP37 protein” value ([3]; 120-146QH at 10^−6 M and 10^−8 M) is reported as “comparable”.

In the case of `CC[C@H](C)[C@H](NC(=O)[C@H](CC(C)C)NC(=O)[C@H](C)NC(=O)CNC(=O)CNC(=O)[C@H](CS)NC(=O)[C@H](Cc1ccccc1)NC(=O)[C@H](Cc1c[nH]cn1)NC(=O)[C@H](CCCNC(=N)N)NC(=O)CNC(=O)[C@H](CCC(N)=O)NC(=O)[C@H](CC(N)=O)NC(=O)[C@H](CCCNC(=N)N)NC(=O)[C@H](CCCNC(=N)N)NC(=O)[C@H](CCCNC(=N)N)NC(=O)[C@H](CCCNC(=N)N)NC(=O)COCCOCCNC(=O)COCCOCCN)C(=O)N[C@@H](Cc1c[nH]cn1)C(=O)N[C@@H](C)C(=O)N[C@@H](CCCNC(=N)N)C(=O)N[C@@H](Cc1ccccc1)C(=O)N[C@H](C(=O)N[C@@H](CCSC)C(=O)N[C@H](C(=O)N[C@@H](C)C(=O)N[C@@H](C)C(=O)N[C@@H](CO)C(=O)N[C@@H](CO)C(=O)N[C@@H](Cc1ccccc1)C(=O)N[C@@H](CCC(N)=O)C(=O)N[C@@H](CCCNC(=N)N)C(=O)O)[C@@H](C)O)C(C)C` [^14C-BCC03-5RMP] (H-[AEEA][AEEA]RRRRNQGRHFCGGALIHARFVMTAASSFQR-OH; N-terminus assumed), the “administered radioactivity eliminated within the first 48 hours postdose” value [4] is reported as “approximately 55%”, the “Clearance of radioactivity in plasma compared to blood” value ([4]; 20 mg/kg) is reported as “approximately 2 fold” and the “exposure (AUC0-∞) in blood compared to plasma” value ([4]; 20 mg/kg) is reported as “approximately 2 fold”. The “volume of distribution of total radioactivity in blood compared to plasma” value ([4]; 20 mg/kg) was “approximately 1.6 fold”.

B1: HB-EGF: heparin binding-epidermal growth factor, used as the positive control (protein, UniProt Q99075 63-148, looked up)
Heparin-binding EGF-like …: DLQEADLDLLRVTLSSKPQALATPNKEEHGKRKKKGKGLGKKRDPCLRKYKDFCIHGECKYVKELRAPSCICHPGYHGERCHGLSL
With B1 the “corneal wound healing versus vehicle” value [5] was “significantly higher”, the “time to complete closure of scratched monolayers” value [6] was no more than 24 h and the “percentage wound closure in vitro” value ([6]; at 18 hours) was roughly 88%. The “HCEC migration versus buffer control” value [3] was “significant increase in migration”.
